Data: patent US9789095B2, “Inhibitors of calcium-activated chloride channels” (The Regents of the University of California, priority 2007, dated 2017)

Tested on: calcium-activated chloride channel (CaCC)
Experiment: YFP fluorescence plate reader iodide influx assay in HT-29 cells (ATP/carbachol)
Assay type: cell-based, human
Conditions: semi-quantitative
Procedure: Screening was performed using a customized screening system (BECKMAN COULTER, Inc., Indianapolis, Ind.) consisting of the SAGIAN Core system integrated with SAMI software, and equipped with an ORCA arm for labware transport, a 96-channel head BIOMEK FX, CO2 incubator, plate washer, bar code reader, delidding station, and two FLUOstar OPTIMA fluorescence plate readers (BMG Labtechnologies, Durham, N.C.), each equipped with syringe pumps and custom excitation/emission filters (500/544 nm; CHROMA, Brattleboro, Vt.).
HT-29 cells expressing YFP-H148Q/I152L were plated in 96-well plates at 70% confluence. Plates were incubated overnight at 37° C., 5% CO2 and then the growth medium was replaced with fresh growth medium. […] YFP fluorescence was measured 1 s before and for 30 s after addition of a PBS-iodide solution (PBS that has 100 mM chloride replaced by iodide) containing carbachol and ATP (100 μM each). Each 96-well plate contained ‘positive’ controls (DMSO vehicle without agonists or test compounds) and ‘negative’ controls (DMSO vehicle with agonists but without test compounds). In some experiments solutions included (individually or in combination): carbachol, ATP, or histamine (at 50, 100, 150 or 200 μM), calcimycin (10 μM), thapsigargin (2 μM) and CFTRinh-172 (20 μM).
Iodide influx (d[I^−]/dt at t=0) was computed from fluorescence time course data by single exponential regression, as described (Ma et al., J. Clin. Invest. 110:1651-8 (2002)). Percentage inhibition was computed as: percentage inhibition=100×(Slopenegative control−Slopetest compound)/(Slopenegative control−Slopepositive control).

Compound | % inhibition at 25 μM (class A aminothiophenes) [%] | % inhibition at 25 μM (class B aminothiazoles) [%]
Cc1ccccc1C(=O)Nc1sc2c(c1C(=O)O)CCC(C(C)(C)C)C2 (centres unmarked) [CaCCinh-A02, 6-tert-butyl-2-(2-methylbenzamido)-4,5,6,7-tetrahydrobenzo[b]thiophene-3-carboxylic acid] | 95 | –
CC(C)(C)C1CCc2c(sc(NC(=O)c3cccc(Cl)c3)c2C(=O)O)C1 (centres unmarked) [CaCCinh-A03, 6-tert-butyl-2-(3-chlorobenzamido)-4,5,6,7-tetrahydrobenzo[b]thiophene-3-carboxylic acid] | 50 | –
CC(C)(C)C1CCc2c(sc(NC(=O)c3ccccc3)c2C(=O)O)C1 (centres unmarked) [CaCCinh-A04, 2-benzamido-6-tert-butyl-4,5,6,7-tetrahydrobenzo[b]thiophene-3-carboxylic acid] | 85 | –
CC(C)(C)C1CCc2c(sc(NC(=O)c3ccccc3Cl)c2C(=O)O)C1 (centres unmarked) [CaCCinh-A05, 6-tert-butyl-2-(2-chlorobenzamido)-4,5,6,7-tetrahydrobenzo[b]thiophene-3-carboxylic acid] | 75 | –
CCOC(=O)c1c(NC(=O)CCC(=O)O)sc2c1CCC(C(C)(C)C)C2 (centres unmarked) [CaCCinh-A06, 4-(6-tert-butyl-3-(ethoxycarbonyl)-4,5,6,7-tetrahydrobenzo[b]thiophen-2-ylamino)-4-oxobutanoic acid] | 75 | –
CCOC(=O)c1c(NC(=O)/C=C/C(=O)O)sc2c1CCC(C(C)(C)C)C2 (centres unmarked) [CaCCinh-A07, (E)-4-(6-tert-butyl-3-(ethoxycarbonyl)-4,5,6,7-tetrahydrobenzo[b]thiophen-2-ylamino)-4-oxobut-2-enoic acid] | 98 | –
CCOC(=O)c1c(NC(=O)C2CCCCC2C(=O)O)sc2c1CCC(C(C)(C)C)C2 (centres unmarked) [CaCCinh-A08, 2-(6-tert-butyl-3-(ethoxycarbonyl)-4,5,6,7-tetrahydrobenzo[b]thiophen-2-ylcarbamoyl)cyclohexanecarboxylic acid] | 80 | –
COC(=O)c1c(NC(=O)CCCC(=O)O)sc2c1CCC(C(C)(C)C)C2 (centres unmarked) [CaCCinh-A09, 5-(6-tert-butyl-3-(methoxycarbonyl)-4,5,6,7-tetrahydrobenzo[b]thiophen-2-ylamino)-5-oxopentanoic acid] | 45 | –
CCOC(=O)c1c(NC(=O)C2CCCCC2C(=O)O)sc2c1CCC(C(C)(C)CC)C2 (centres unmarked) [CaCCinh-A10, 2-(3-(ethoxycarbonyl)-6-tert-pentyl-4,5,6,7-tetrahydrobenzo[b]thiophen-2-ylcarbamoyl)cyclohexanecarboxylic acid] | 75 | –
COC(=O)c1c(NC(=O)CCC(=O)O)sc2c1CCC(C(C)(C)C)C2 (centres unmarked) [CaCCinh-A11, 4-(6-tert-butyl-3-(methoxycarbonyl)-4,5,6,7-tetrahydrobenzo[b]thiophen-2-ylamino)-4-oxobutanoic acid] | 81 | –
Cc1ccc(C(=O)Nc2sc3c(c2C(=O)O)CCCCC3)cc1 [CaCCinh-A12, 2-(4-methylbenzamido)-5,6,7,8-tetrahydro-4H-cyclohepta[b]thiophene-3-carboxylic acid] | 15 | –
O=C(Nc1sc2c(c1C(=O)O)CCCCC2)c1ccccc1 [CaCCinh-A13, 2-benzamido-5,6,7,8-tetrahydro-4H-cyclohepta[b]thiophene-3-carboxylic acid] | 27 | –
COc1cccc(C(=O)Nc2sc3c(c2C(=O)O)CCCCC3)c1 [CaCCinh-A15, 2-(3-methoxybenzamido)-5,6,7,8-tetrahydro-4H-cyclohepta[b]thiophene-3-carboxylic acid] | 20 | –
Cc1cccc(NC(=O)c2c(NC(=O)CCC(=O)O)sc3c2CCC(C(C)(C)C)C3)c1 (centres unmarked) [CaCCinh-A16, 4-(6-tert-butyl-3-(m-tolylcarbamoyl)-4,5,6,7-tetrahydrobenzo[b]thiophen-2-ylamino)-4-oxobutanoic acid] | 42 | –
Cc1cccc(C(=O)Nc2sc3c(c2C(=O)O)CCCC3)c1 [CaCCinh-A17, 2-(3-methylbenzamido)-4,5,6,7-tetrahydrobenzo[b]thiophene-3-carboxylic acid] | 07 | –
COc1ccc(NC(=O)c2c(NC(=O)CCC(=O)O)sc3c2CCC(C(C)(C)C)C3)cc1 (centres unmarked) [CaCCinh-A18, 4-(6-tert-butyl-3-(4-methoxyphenylcarbamoyl)-4,5,6,7-tetrahydrobenzo[b]thiophen-2-ylamino)-4-oxobutanoic acid] | 35 | –
Cc1ccc(-c2nc(Nc3ccc(C)c(Cl)c3)sc2CC(=O)O)cc1 [CaCCinh-B02, 2-(2-(3-chloro-4-methylphenylamino)-4-p-tolylthiazol-5-yl)acetic acid] | – | 40
Cc1ccc(-c2nc(Nc3cccc(Br)c3)sc2CC(=O)O)cc1 [CaCCinh-B03, 2-(2-(3-bromophenylamino)-4-p-tolylthiazol-5-yl)acetic acid] | – | 60
Cc1ccc(-c2nc(Nc3ccc(Cl)cc3Cl)sc2CC(=O)O)cc1 [CaCCinh-B04, 2-(2-(2,4-dichlorophenylamino)-4-p-tolylthiazol-5-yl)acetic acid] | – | 65
Cc1ccc(-c2nc(Nc3cccc(C(F)(F)F)c3)sc2CC(=O)O)cc1 [CaCCinh-B05, 2-(4-p-tolyl-2-(3-(trifluoromethyl)phenylamino)thiazol-5-yl)acetic acid] | – | 60
CCCc1sc(Nc2ccc(C(=O)O)cc2)nc1-c1ccc(C)cc1C [CaCCinh-B06, 4-(4-(2,4-dimethylphenyl)-5-propylthiazol-2-ylamino)benzoic acid] | – | 100
Cc1ccc(-c2nc(Nc3ccc(Br)cc3)sc2CC(=O)O)c(C)c1 [CaCCinh-B07, 2-(2-(4-bromophenylamino)-4-(2,4-dimethylphenyl)thiazol-5-yl)acetic acid] | – | 70
Cc1ccc(-c2nc(Nc3cccc(C(F)(F)F)c3)sc2CC(=O)O)c(C)c1 [CaCCinh-B08, 2-(4-(2,4-dimethylphenyl)-2-(3-(trifluoromethyl)phenylamino)thiazol-5-yl)acetic acid] | – | 75
CC(C)Cc1ccc(Nc2nc(-c3ccc(Oc4ccccc4)cc3)cs2)cc1 [CaCCinh-B09, N-(4-isobutylphenyl)-4-(4-phenoxyphenyl)thiazol-2-amine] | – | 65
FC(F)(F)c1cccc(-c2csc(Nc3ccc(C4CCCCC4)cc3)n2)c1 [CaCCinh-B10, N-(4-cyclohexylphenyl)-4-(3-(trifluoromethyl)phenyl)thiazol-2-amine] | – | 55
CCOc1ccc(Nc2nc(-c3ccc(C)cc3)c(CC(=O)O)s2)cc1 [CaCCinh-B11, 2-(2-(4-ethoxyphenylamino)-4-p-tolylthiazol-5-yl)acetic acid] | – | 65
Cc1ccc(-c2nc(NC(=O)c3cccc(C)c3)sc2-c2ccccc2)cc1 [CaCCinh-B12, 3-methyl-N-(5-phenyl-4-p-tolylthiazol-2-yl)benzamide] | – | 03
CCNc1nc(-c2ccc(C)cc2)cs1 [CaCCinh-B13, N-ethyl-4-p-tolylthiazol-2-amine] | – | 20
COc1ccc(Nc2nc(-c3ccc(OC)cc3)c(CCC(=O)O)s2)cc1 [CaCCinh-B14, 3-(4-(4-methoxyphenyl)-2-(4-methoxyphenylamino)thiazol-5-yl)propanoic acid] | – | 18
